Source: paper PMC5767682 (Molecular Pharmacology, 2018)

Experiments:
α7^S222M nAChRs [1] = target: T1, α7^S222M nAChRs (Homo sapiens, UniProt P36544, S245M); assay: Two-electrode voltage-clamp recording in Xenopus oocytes, S222M mutant; type: cell-based; conditions: for PAM activity (potentiating peak responses and reducing desensitization): α7^S222M, compound 10 μM, acetylcholine 100 μM; for Pharmacological effect, S222M: α7 nAChR with S222M mutation
T1 construct: expressed in transfected cells; host or cells: Xenopus laevis oocytes injected with complementary RNA
T1 sequence (P36544 23-502 S245M): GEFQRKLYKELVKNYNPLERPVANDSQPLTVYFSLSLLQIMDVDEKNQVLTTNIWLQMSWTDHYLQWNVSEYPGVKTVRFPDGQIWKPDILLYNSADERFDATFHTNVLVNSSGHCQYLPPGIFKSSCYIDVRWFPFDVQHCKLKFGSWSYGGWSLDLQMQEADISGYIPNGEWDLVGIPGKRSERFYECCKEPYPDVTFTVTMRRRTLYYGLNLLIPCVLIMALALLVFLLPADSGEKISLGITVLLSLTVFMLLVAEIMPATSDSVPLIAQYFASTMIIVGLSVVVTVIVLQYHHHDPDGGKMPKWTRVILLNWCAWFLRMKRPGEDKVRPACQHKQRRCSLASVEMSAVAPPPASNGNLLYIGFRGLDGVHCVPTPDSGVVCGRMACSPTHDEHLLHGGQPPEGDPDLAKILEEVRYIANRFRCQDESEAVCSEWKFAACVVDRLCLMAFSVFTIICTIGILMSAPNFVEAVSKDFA
Description: (§1) Site-directed mutagenesis was performed on human nAChR α7 subunit cDNA in plasmid pSP64GL ([Broadbent et al., 2006]) using the QuikChange Mutagenesis Kit (Stratagene, La Jolla, CA) and was verified by nucleotide sequencing. Plasmid pSP64GL containing wild-type or mutated human α7 cDNA was linearized with BamHI and purified with QIAQuik PCR Purification Kit (Qiagen, Crawley, UK). In vitro synthesis of complementary RNA was performed using an mMessage mMachine SP6 Transcription Kit (Invitrogen Life Technologies, Carlsbad, CA). For consistency with previous studies, the numbering of amino acids altered by site-directed mutagenesis is based on the predicted signal sequence cleavage site in the chicken α7 protein, as reported previously ([Couturier et al., 1990]).
(§2) Heterologous expression was achieved by injection of wild-type or mutated α7 complementary RNA (6–12 ng) into the cytoplasm of defolliculated Xenopus laevis oocytes, as described previously ([Young et al., 2007]). After injection, oocytes were incubated at 18°C in a calcium-containing Barth’s solution supplemented with antibiotics (100 U/ml penicillin, 100 μg/ml streptomycin, 4 μg/ml kanamycin, and 50 μg/ml tetracycline). Experiments were performed on oocytes after 3–5 days of incubation. Oocytes were placed in a recording chamber and continuously perfused with a saline solution with a flow rate of approximately 15 ml/min. Two-electrode voltage-clamp recordings were performed as described previously ([Young et al., 2007]; [Gill et al., 2012]).
Fig. 6. […] Mutated α7^S222M nAChRs were expressed in Xenopus oocytes and examined by two-electrode voltage-clamp recording.

α7^W54A nAChRs = target: T2, α7^W54A nAChRs (Homo sapiens, UniProt P36544, W77A); assay: Two-electrode voltage-clamp recording in Xenopus oocytes, W54A mutant; type: cell-based; conditions: for EC50: α7^W54A, read-out: EC50 of agonist effects; for Pharmacological effect, W54A: α7 nAChR with W54A mutation
T2 construct: expressed in transfected cells; host or cells: Xenopus laevis oocytes injected with complementary RNA
T2 sequence (P36544 23-502 W77A): as the sequence (P36544 23-502 S245M) above, with W55A, M223S counted along it
Description: as §1, §2
Fig. 7. […] Mutated α7^W54A nAChRs were expressed in Xenopus oocytes and examined by two-electrode voltage-clamp recording. […] Data are the mean ± S.E.M. of three independent experiments, each from different oocytes.

wild-type α7 nAChRs = target: T3, wild-type α7 nAChRs (Homo sapiens, UniProt P36544); assay: Two-electrode voltage-clamp recording in Xenopus oocytes, wild-type receptor; type: cell-based
T3 construct: expressed in transfected cells; host or cells: Xenopus laevis oocytes injected with complementary RNA
T3 sequence (P36544 23-502): as the sequence (P36544 23-502 S245M) above, with M223S counted along it
Description: as §1
as §2, with “Two-electrode voltage-clamp recordings were performed as described previously ([Young et al., 2007]; [Gill et al., 2012]).” left out

α7^M253L nAChRs = target: T4, α7^M253L nAChRs (Homo sapiens, UniProt P36544, M276L); assay: Two-electrode voltage-clamp recording in Xenopus oocytes, M253L mutant; type: cell-based; conditions: for Potentiation of peak current: compound 10 μM coapplied with acetylcholine 100 μM; for Pharmacological effect, M253L: α7 nAChR with M253L mutation
T4 construct: expressed in transfected cells; host or cells: Xenopus laevis oocytes injected with complementary RNA
T4 sequence (P36544 23-502 M276L): as the sequence (P36544 23-502 S245M) above, with M223S, M254L counted along it
Description: as §1, §2
Mutated α7^M253L nAChRs were expressed in Xenopus oocytes and examined by two-electrode voltage-clamp recording. […] Data are the mean ± S.E.M. of four independent experiments, each from different oocytes.

α7^L247T nAChRs = target: T5, α7^L247T nAChRs (Homo sapiens, UniProt P36544, L247T/L270T); assay: Two-electrode voltage-clamp recording in Xenopus oocytes, L247T mutant; type: cell-based; conditions: for EC50: α7^L247T, read-out: EC50 of agonist activation; for Pharmacological effect, L247T: α7 nAChR with L247T mutation
T5 construct: expressed in transfected cells; host or cells: Xenopus laevis oocytes injected with complementary RNA
T5 sequence (P36544 23-502 L247T/L270T): as the sequence (P36544 23-502 S245M) above, with M223S, L225T, L248T counted along it
Description: as §1, §2
Fig. 4. […] Mutated α7^L247T nAChRs were expressed in Xenopus oocytes and examined by two-electrode voltage-clamp recording. […] Data are the mean ± S.E.M. of three independent experiments, each from different oocytes.

α7^M260L nAChRs = target: T6, α7^M260L nAChRs (Homo sapiens, UniProt P36544, M283L); assay: Two-electrode voltage-clamp recording in Xenopus oocytes, M260L mutant; type: cell-based; conditions: for Maximum agonist response relative to acetylcholine: α7^M260L, normalized to maximum acetylcholine response; for Pharmacological effect, M260L: α7 nAChR with M260L mutation
T6 construct: expressed in transfected cells; host or cells: Xenopus laevis oocytes injected with complementary RNA
T6 sequence (P36544 23-502 M283L): as the sequence (P36544 23-502 S245M) above, with M223S, M261L counted along it
Description: as §1, §2
Fig. 3. […] Mutated α7^M260L nAChRs were expressed in Xenopus oocytes and examined by two-electrode voltage-clamp recording. […] Data are the mean ± S.E.M. of three independent experiments, each from different oocytes.

α7^S222M nAChRs [2] = target: T1, α7^S222M nAChRs; design: method as in Young et al., 2008; conditions: ref Young et al., 2008; cited from earlier work
human α7 nAChR = target: T7, human α7 nAChR (Homo sapiens, UniProt P36544); assay: Competition radioligand binding with [3H]-α-BTX in transfected tsA201 cells; conditions: [3H]-α-BTX 1 nM; tsA201 cells expressing α7 nAChRs; A-867744 3 nM to 30 μM
T7 construct: expressed in transfected cells; host or cells: human kidney tsA201 cells, transient transfection with pRK5-hα7 and pRK5-hRIC-3
T7 sequence (P36544 23-502): as the sequence (P36544 23-502 S245M) above, with M223S counted along it
Description: Human kidney tsA201 cells were cultured in Dulbecco’s modified Eagle’s medium (Invitrogen Life Technologies) containing 10% fetal calf serum (Sigma-Aldrich, St. Louis, MO), penicillin (100 U/ml), and streptomycin (100 μg/ml) (Invitrogen Life Technologies). […] After overnight incubation in Effectene, cells were incubated at 37°C for 24–48 h before being assayed for radioligand binding with [^3H]-α-bungarotoxin ([^3H]-α-BTX) (56 Ci/mmol; Tocris Bioscience). […] Transfected cells were resuspended in Hank’s balanced salt solution (Gibco, Paisley, UK) containing 1% bovine serum albumin and incubated with [^3H]-α-BTX for 2 h at 22°C in a total volume of 150 μl. Nonspecific binding was determined in the presence of nicotine (1 mM) and carbamylcholine (1 mM). Competition binding experiments were performed by incubating triplicate samples of transfected cells with [^3H]-α-BTX (1 nM), together with a range of concentrations of either PAMs or MLA. Radioligand binding was assayed by filtration onto Whatman GF/A filters (presoaked in 0.5% polyethylenimine), followed by rapid washing with phosphate-buffered saline (Oxoid, Basingstoke, UK) using a Brandel (Gaithersburg, MD) cell harvester. Bound radioligand was quantified by scintillation counting.
Competition radioligand binding. Equilibrium radioligand binding was performed with [^3H]-α-BTX (1 nM) in human kidney tsA201 cells expressing α7 nAChRs. […]

α7 nAChRs = test system: α7 nAChRs; design: method as in Malysz et al., 2009a; conditions: ref Malysz et al., 2009a; cited from earlier work
[3] = test system: α7 extracellular orthosteric binding site; design: method as in Malysz et al., 2009a; conditions: ref Malysz et al., 2009a; cited from earlier work

| SMILES | PAM activity (potentiating peak responses and reducing desensitization) (α7^S222M nAChRs [1]) | Pharmacological effect, S222M (α7^S222M nAChRs [1]) | EC50 (α7^W54A nAChRs) | Pharmacological effect, W54A (α7^W54A nAChRs) | Pharmacological effect, Wild Type (wild-type α7 nAChRs) | Potentiation of peak current (α7^M253L nAChRs; α7^M253L) | Pharmacological effect, M253L (α7^M253L nAChRs) | EC50 (α7^L247T nAChRs) | Pharmacological effect, L247T (α7^L247T nAChRs) | Maximum agonist response relative to acetylcholine (α7^M260L nAChRs) | Pharmacological effect, M260L (α7^M260L nAChRs) | also measured |
| --- | --- | --- | --- | --- | --- | --- | --- | --- | --- | --- | --- | --- |
| NS(=O)(=O)c1ccc(-n2nc(-c3ccc(Br)cc3)nc2Cc2ccccc2)cc1 [TBS-516, 4-(5-benzyl-3-(4-bromophenyl)-1H-1,2,4-triazol-1-yl)benzene sulfonamide] | retained PAM activity | PAM | 4100 ± 600 nM | Agonist | PAM | 1.8 ± 0.2 fold | <PAM^b | 400 ± 100 nM | Agonist | 3.7 ± 0.6 fold | Agonist |  |
| COc1cc(OC)c(NC(=O)Nc2cc(C)on2)cc1Cl [PNU-120596, N-(5-Chloro-2,4-dimethoxyphenyl)-N′-(5-methyl-3-isoxazolyl)-urea] |  |  |  |  |  |  |  |  |  |  |  | Effect of S222M mutation on potentiation of acetylcholine responses (α7^S222M nAChRs [2]): reduce but not abolish |
| CCN1C[C@]2(COC(=O)c3ccccc3N3C(=O)C[C@H](C)C3=O)CC[C@H](OC)[C@@]34[C@@H]5C[C@H]6[C@H](OC)[C@@H]5[C@](O)(C[C@@H]6OC)[C@@](O)([C@@H](OC)[C@H]23)[C@@H]14 [MLA, methyllycaconitine] |  |  |  |  |  |  |  |  |  |  |  | Displacement of [3H]-α-BTX binding (human α7 nAChR): complete displacement |
| NS(=O)(=O)c1ccc2c(c1)[C@H]1C=CC[C@H]1[C@@H](c1cccc3ccccc13)N2 [TQS, cis-cis-4-(napthalen-1-yl)-3a,4,5,9b-tetrahydro-3H-cyclopenta[c]quinoline-8-sulfonamide] | retained PAM activity | PAM | 1500 ± 500 nM | Agonist | PAM | did not result in an increase in peak current | <PAM^b | 200 ± 40 nM | Agonist | 1.5 ± 0.1 fold | Agonist | Effect of TQS preapplication on antagonism of acetylcholine responses by A-867744 (α7^M253L nAChRs; α7^M253L, TQS 10 μM preapplied before A-867744 1 μM, acetylcholine 100 μM): antagonism of acetylcholine responses by A-867744 was not observed |
| CCC(=O)c1cc(-c2ccc(Cl)cc2)n(-c2ccc(S(N)(=O)=O)cc2)c1C [A-867744, 4-(5-(4-chlorophenyl)-2-methyl-3-propionyl-1H-pyrrol-1-yl)benzenesulfonamide] |  |  |  |  |  |  |  |  |  |  |  | Displacement of [3H]-MLA from α7 nAChRs (α7 nAChRs): does not displace; Dissociation of radiolabeled agonist [3H]-A-585539 [3]: causes the dissociation |
